The values below are quoted from earlier work in US20110229902A1, “METHOD FOR DETERMINING THE […] OF FUNGI AND YEASTS, IN PARTICULAR OF A[…]” (STICHTING TER B[…] DE FARMACODYNAMIEK, priority 2008, published 2011).

Each structure is given as a SMILES string.

Common to all, as to design: key: R = resistant; S = sensitive
Data set [1] concerns Aspergillus fumigatus cyp51A G54W. As to conditions: A. fumigatus isolate with cyp51A mutation G54W.
The test system of data set [2] is Aspergillus fumigatus cyp51A G54X. As to conditions: A. fumigatus isolate with cyp51A mutation G54X.
Data set [3] has as its system Aspergillus fumigatus cyp51A L98H + TR. Conditions: A. fumigatus isolate with cyp51A L98H + TR (tandem repeat in promoter).
Data set [4] relates to Aspergillus fumigatus cyp51A G138C. Conditions: A. fumigatus isolate with cyp51A mutation G138C.
The test system of data set [5] is Aspergillus fumigatus cyp51A M220X. As to conditions: A. fumigatus isolate with cyp51A mutation M220X.

As to `CC[C@@H]([C@H](C)O)n1ncn(-c2ccc(N3CCN(c4ccc(OC[C@@H]5CO[C@@](Cn6cncn6)(c6ccc(F)cc6F)C5)cc4)CC3)cc2)c1=O` [Posaconazole], the “resistance status (resistant or sensitive)” value (shortened to “resistance status”) in data set [1] is recorded as “R”; in data set [2], “S”; in data set [3] it was “S”; in data set [4], “S”; in data set [5], “S”.
In the case of `C[C@@H](c1nc(-c2ccc(C#N)cc2)cs1)[C@](O)(Cn1cncn1)c1ccc(F)cc1F` [Ravuconazole], the “resistance status” value in data set [1] is listed as “S”; in data set [2] it was “S”; in data set [3] it was “R”; in data set [4] it was “R”; in data set [5], “S”.
For the molecule `C[C@@H](c1ncncc1F)[C@](O)(Cn1cncn1)c1ccc(F)cc1F` [Voriconazole], the “resistance status” value is “S” in data set [1]; “S” in data set [2]; “R” in data set [3]; “R” in data set [4]; “S” in data set [5].
